Some test systems named below: NCI-H23; RXF 393; SK-MEL-28; COLO 205; HOP-92; SK-MEL-2; UACC-257; PC-3; T47D; OVCAR-8; UO-31; SW-620; Malme-3M; EKVX; SR; NCI/ADR-RES; SK-OV-3; DU-145; NCI-H226; MDA-MB-231.
Experiment in all cases: inhibition of tumour cell growth, NCI panel, 48 h

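How tested: cells in 96-well plates exposed to compound for 48 hours at five concentrations. Here, GI50 denotes the concentration required for 50% inhibition of growth.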 Activity calls are given as the source filed them. No stated cut-off is given here; in the data, active = GI50 up to about 1.1 µM and inactive = higher.

Turning to `O=C1NC(c2ccccc2Cl)Nc2ccccc21` (stereo not given), the GI50 in the assay with NCI-H23 was 34.2 µM (inactive); in the assay on RXF 393, 15.3 µM (inactive); with SK-MEL-28 it was 24.1 µM (inactive); in the assay with COLO 205 it was 8.49 µM (inactive); in the assay with HOP-92, 44.4 µM (inactive); in the assay with SK-MEL-2, 6.7 µM (inactive). The GI50 in the assay on UACC-257 was > 100 µM (inactive); in the assay on PC-3 it was 21.4 µM (inactive); with T47D it was 48.5 µM (inactive); in the assay with OVCAR-8, 38.6 µM (inactive); in the assay on UO-31, 30.7 µM (inactive); with SW-620, 3.09 µM (inactive). Moreover, the GI50 was 12.3 µM (inactive) in the assay with Malme-3M; 27.7 µM (inactive) in the assay on EKVX; 4.07 µM (inactive) in the assay on SR; 5.61 µM (inactive) with NCI/ADR-RES; 31 µM (inactive) in the assay with SK-OV-3; 30.8 µM (inactive) with DU-145. Further, the figures for the GI50 in the assay with NCI-H226 and with MDA-MB-231 were 41.8 µM (inactive) and 33.2 µM (inactive), respectively.
With `Nc1ccc2c3[nH]c4cc(N)ccc4cc-3nc2c1`, the GI50 in the assay on NCI-H23 is 0.202 µM (active); in the assay on RXF 393, 0.32 µM (active); with SK-MEL-28, 0.0746 µM (active); in the assay on COLO 205 it was 0.18 µM (active); in the assay on HOP-92, 0.0422 µM (active); in the assay on SK-MEL-2, 0.413 µM (active). Besides, the GI50 with UACC-257 was 0.172 µM (active); in the assay on PC-3, 0.224 µM (active); in the assay with T47D, 0.284 µM (active); with OVCAR-8 it was 0.151 µM (active); in the assay with UO-31, 0.0925 µM (active); with SW-620, 0.0603 µM (active). Moreover, the GI50 is 2.66 µM (inactive) in the assay with Malme-3M; 0.267 µM (active) in the assay on EKVX; 0.0535 µM (active) with SR; 0.243 µM (active) with NCI/ADR-RES; 0.314 µM (active) in the assay with SK-OV-3; 0.318 µM (active) in the assay with DU-145. Besides, the values for the GI50 in the assay with NCI-H226 and in the assay on MDA-MB-231 were 0.174 µM (active) and 0.455 µM (active), respectively.
On to `CCCCCCN(CCCCCC)CCC(=O)c1ccc2cc(Br)c3ccccc3c2c1`, for which the GI50 is 81.8 µM (inactive) with NCI-H23; 20.7 µM (inactive) with RXF 393; 77.1 µM (inactive) in the assay with SK-MEL-28; 22.6 µM (inactive) with COLO 205; 19.4 µM (inactive) in the assay with HOP-92; 27.3 µM (inactive) with SK-MEL-2. The GI50 in the assay on UACC-257 was 64.7 µM (inactive); with PC-3 it was 31.3 µM (inactive); in the assay on T47D, 23.3 µM (inactive); in the assay on OVCAR-8, 31.7 µM (inactive); in the assay with UO-31 it was 26.7 µM (inactive); with SW-620, 43.7 µM (inactive). In addition, the GI50 in the assay on Malme-3M was 89.1 µM (inactive); in the assay on EKVX, > 100 µM (inactive); in the assay with SR, 0.318 µM (active); in the assay with NCI/ADR-RES it was 48.5 µM (inactive); with SK-OV-3 it was 39.1 µM (inactive); in the assay with DU-145, 52.2 µM (inactive). Further, the GI50 is 69.7 µM (inactive) in the assay on NCI-H226 and 26.7 µM (inactive) in the assay on MDA-MB-231.
Regarding `CC(C)[S+]1C2=C(CC(C)(C)CC2=O)[N-]c2ccccc21` (stereo not given), the GI50 with NCI-H23, in the assay with RXF 393, in the assay on SK-MEL-28, in the assay with COLO 205, in the assay on HOP-92 and with SK-MEL-2 was > 100 µM (inactive) each time. Further, the GI50 in the assay with UACC-257, in the assay with PC-3, in the assay on T47D, in the assay with OVCAR-8, in the assay with UO-31 and with SW-620 was > 100 µM (inactive) in each case. Moreover, the GI50 with Malme-3M, with EKVX, with SR, in the assay with NCI/ADR-RES, with SK-OV-3 and with DU-145 was > 100 µM (inactive) each time. The GI50 in the assay with NCI-H226 and in the assay with MDA-MB-231 was > 100 µM (inactive) each time.
With `CN(NC1=NCCO1)c1ccc2ccccc2c1`, the GI50 in the assay on NCI-H23 was 32.1 µM (inactive); in the assay with RXF 393, 38.6 µM (inactive); in the assay on SK-MEL-28, 70.3 µM (inactive); in the assay with COLO 205, 41.1 µM (inactive); with HOP-92, 13.6 µM (inactive); in the assay on SK-MEL-2 it was 27.8 µM (inactive). Besides, the GI50 was 65 µM (inactive) in the assay on UACC-257; 40.3 µM (inactive) with PC-3; 62.5 µM (inactive) in the assay with T47D; 47.3 µM (inactive) with OVCAR-8; 69.5 µM (inactive) in the assay on UO-31; 34.1 µM (inactive) in the assay on SW-620. Further, the GI50 is 36.2 µM (inactive) in the assay with Malme-3M; 39.5 µM (inactive) with EKVX; 39.6 µM (inactive) in the assay with SR; 33.2 µM (inactive) with NCI/ADR-RES; 39.1 µM (inactive) in the assay on SK-OV-3; > 100 µM (inactive) in the assay with DU-145. Further, the results for the GI50 in the assay on NCI-H226 and in the assay with MDA-MB-231 were 34.1 µM (inactive) and 26.3 µM (inactive), respectively.
Regarding `N#CC12CC=C(c3ccccc3)N=C1NC(c1ccccc1)=CC2` (stereo not given), the GI50 with NCI-H23 was 84.9 µM (inactive); in the assay on RXF 393 it was > 100 µM (inactive); in the assay on SK-MEL-28, > 100 µM (inactive); in the assay on COLO 205 it was 30.8 µM (inactive); with HOP-92, 16 µM (inactive); in the assay on SK-MEL-2 it was 56.4 µM (inactive). In addition, the GI50 in the assay with UACC-257 was 48.6 µM (inactive); in the assay on PC-3, 33.9 µM (inactive); in the assay with T47D, 34.7 µM (inactive); in the assay on OVCAR-8, 48.2 µM (inactive); in the assay on UO-31, 40.3 µM (inactive); in the assay on SW-620 it was 98.9 µM (inactive). In addition, the GI50 with Malme-3M was > 100 µM (inactive); in the assay with EKVX it was 52.2 µM (inactive); in the assay on SR it was 29.9 µM (inactive); in the assay with NCI/ADR-RES it was 53.5 µM (inactive); in the assay on SK-OV-3, > 100 µM (inactive); in the assay with DU-145, 57.5 µM (inactive). Also, the results for the GI50 with NCI-H226 and in the assay on MDA-MB-231 were 60.8 µM (inactive) and > 100 µM (inactive), respectively.
Regarding `O=C(CCCl)NN=C1NCCCCN1`, the GI50 in the assay with NCI-H23, in the assay with RXF 393, in the assay with SK-MEL-28, with COLO 205, in the assay on HOP-92 and in the assay on SK-MEL-2 was > 100 µM (inactive) each time. Moreover, the GI50 in the assay on UACC-257, in the assay with PC-3, in the assay with T47D, in the assay with OVCAR-8, with UO-31 and with SW-620 was > 100 µM (inactive) in each case. Also, the GI50 in the assay on Malme-3M, in the assay with EKVX, in the assay with SR, in the assay on NCI/ADR-RES, in the assay with SK-OV-3 and with DU-145 was > 100 µM (inactive) throughout. The GI50 with NCI-H226 and in the assay on MDA-MB-231 was > 100 µM (inactive) in each case.
In the case of `COc1ccccc1/C=C1\CCC(CN2CCOCC2)C1=O` (stereo not given), the GI50 is 20.3 µM (inactive) in the assay on NCI-H23; 16.8 µM (inactive) in the assay on RXF 393; 15.5 µM (inactive) in the assay on SK-MEL-28; 4.47 µM (inactive) with COLO 205; 18.4 µM (inactive) in the assay with HOP-92; 15.7 µM (inactive) with SK-MEL-2. The GI50 is 11.6 µM (inactive) in the assay on UACC-257; 15.2 µM (inactive) with PC-3; 1.84 µM (inactive) in the assay on T47D; 5.43 µM (inactive) with OVCAR-8; 16.6 µM (inactive) in the assay with UO-31; 4.16 µM (inactive) in the assay on SW-620. Also, the GI50 in the assay on Malme-3M was 10.2 µM (inactive); in the assay on EKVX it was 11.2 µM (inactive); in the assay on SR it was 1.74 µM (inactive); in the assay on NCI/ADR-RES, 8.95 µM (inactive); with SK-OV-3, > 43.7 µM (inactive); in the assay on DU-145, 17.3 µM (inactive). Also, the GI50 in the assay with NCI-H226 is 16.9 µM (inactive); with MDA-MB-231, 3.68 µM (inactive).
Turning to `CN(C)CCCn1c2ccccc2c2cnccc21`, the GI50 in the assay with NCI-H23 was 39.5 µM (inactive); in the assay on RXF 393, 57.4 µM (inactive); in the assay on SK-MEL-28 it was 48.9 µM (inactive); in the assay on COLO 205, 14.6 µM (inactive); in the assay with HOP-92 it was 94.6 µM (inactive); with SK-MEL-2, 45.5 µM (inactive). Also, the GI50 is 18.7 µM (inactive) in the assay with UACC-257; 32.3 µM (inactive) with PC-3; 70.8 µM (inactive) in the assay with T47D; 55.3 µM (inactive) in the assay on OVCAR-8; 17.5 µM (inactive) in the assay on UO-31; 26.4 µM (inactive) with SW-620. In addition, the GI50 with Malme-3M is 28.6 µM (inactive); in the assay with EKVX, 36.1 µM (inactive); in the assay on SR, 19.2 µM (inactive); in the assay on NCI/ADR-RES, 36.1 µM (inactive); in the assay with SK-OV-3, 66.2 µM (inactive); in the assay with DU-145, 43.9 µM (inactive). The GI50 in the assay with NCI-H226 is 24.1 µM (inactive); in the assay with MDA-MB-231, 30.8 µM (inactive).
On to `CC1=C(/C=C/C(C)=C/C=C/C(C)=C/C(=O)OC2CC(n3cc(F)c(=O)[nH]c3=O)OC2CO)C(C)(C)CCC1` (stereo not given), for which the GI50 with NCI-H23 was 2.75 µM (inactive); in the assay on RXF 393, 6.3 µM (inactive); in the assay on SK-MEL-28, 7.73 µM (inactive); with COLO 205, 6.93 µM (inactive); in the assay on HOP-92, 11.3 µM (inactive); in the assay with SK-MEL-2, 24.9 µM (inactive). Besides, the GI50 with UACC-257 is 7.91 µM (inactive); in the assay with PC-3 it was 1.99 µM (inactive); in the assay with T47D it was 4.17 µM (inactive); with OVCAR-8, 0.526 µM (active); with UO-31, 0.431 µM (active); in the assay with SW-620, 10.6 µM (inactive). Moreover, the GI50 with Malme-3M was 12.1 µM (inactive); with EKVX, 13.9 µM (inactive); with SR, 0.247 µM (active); in the assay on NCI/ADR-RES, 2.05 µM (inactive); with SK-OV-3 it was 2.05 µM (inactive); in the assay with DU-145, 0.476 µM (active). The values for the GI50 in the assay on NCI-H226 and in the assay on MDA-MB-231 were 25.4 µM (inactive) and 9.73 µM (inactive), respectively.

The record behind these values is ChEMBL document CHEMBL1201862, “PubChem BioAssay data set” (2004).
